Data as given in ChEMBL document CHEMBL3091433, “Structure-based design of substituted hexafluoroisopropanol-arylsulfonamides as modulators of RORc” (Bioorg Med Chem Lett, 2013).

Key:
[1] = target: T1, Nuclear receptor ROR-gamma (Homo sapiens, UniProt P51449)
T1 sequence (P51449 whole entry): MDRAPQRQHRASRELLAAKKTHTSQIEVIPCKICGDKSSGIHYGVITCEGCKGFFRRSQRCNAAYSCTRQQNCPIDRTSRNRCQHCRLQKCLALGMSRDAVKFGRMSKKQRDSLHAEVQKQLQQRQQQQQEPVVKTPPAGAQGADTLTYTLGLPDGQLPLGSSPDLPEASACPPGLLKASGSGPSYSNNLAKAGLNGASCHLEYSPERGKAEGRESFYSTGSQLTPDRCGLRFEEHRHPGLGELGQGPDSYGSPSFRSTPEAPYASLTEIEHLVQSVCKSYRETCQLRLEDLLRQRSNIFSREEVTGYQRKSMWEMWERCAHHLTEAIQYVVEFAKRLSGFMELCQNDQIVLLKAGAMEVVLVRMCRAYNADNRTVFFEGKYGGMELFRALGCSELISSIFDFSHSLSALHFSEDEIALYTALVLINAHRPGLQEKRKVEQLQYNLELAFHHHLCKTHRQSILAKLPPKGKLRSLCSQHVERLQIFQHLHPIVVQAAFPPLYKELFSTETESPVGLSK
Description: Displacement of [3H2]-25-hydroxycholesterol from N-terminal 6xHis-tagged human RORc ligand binding domain (241 to 486) expressed in bacterial expression system after 3 hrs by scintillation counting analysis

[2] = target: T1, Nuclear receptor ROR-gamma; remark: listed apart in the source
Description: Inverse agonist activity at N-terminal 6xHis-tagged human RORc ligand binding domain (241 to 486) expressed in bacterial expression system assessed as inhibition of SRC1 co-activator peptide recruitment after 3 hrs by TR-FRET analysis

PBMC [3] = test: cells; conditions: Homo sapiens, 48 h
PBMC [4] = test: Antiinflammatory activity in human PBMC assessed as inhibition of IL-17 production after 48 hrs by Sandwich ELISA relative to control; type: functional
PBMC [5] = test: Cytotoxicity against human PBMC assessed as effect on cell physiology after 48 hrs by CellTiter-Glo assay
PBMC [6] = test: Inhibition of IFNgamma production in human PBMC after 48 hrs by Sandwich ELISA

SMILES	IC50 [1] [µM]	EC50 [2] [µM]	also measured
CS(=O)(=O)CCN(c1ccc(C(O)(C(F)(F)F)C(F)(F)F)cc1)S(=O)(=O)c1ccccc1	> 10	> 10	–
CC(=O)NCCN(c1ccc(C(O)(C(F)(F)F)C(F)(F)F)cc1)S(=O)(=O)c1ccccc1	> 10	> 10	–
O=C(O)CCN(c1ccc(C(O)(C(F)(F)F)C(F)(F)F)cc1)S(=O)(=O)c1ccccc1	> 10	> 10	–
O=C(O)c1ccc(N(CC(F)(F)F)S(=O)(=O)c2ccccc2)cc1	> 10	> 10	–
NC(=O)c1ccc(N(CC(F)(F)F)S(=O)(=O)c2ccccc2)cc1	> 10	> 10	–
NS(=O)(=O)c1ccc(N(CC(F)(F)F)S(=O)(=O)c2ccccc2)cc1	9	> 10	–
O=C(Nc1ccc(C(O)(C(F)(F)F)C(F)(F)F)cc1)c1ccccc1	> 10	> 10	–
O=C(Nc1ccc(C(O)(C(F)(F)F)C(F)(F)F)cc1)c1ccc(C(F)(F)F)cc1	> 10	> 10	–
CC(=O)Nc1nc(C)c(S(=O)(=O)Nc2ccc(C(O)(C(F)(F)F)C(F)(F)F)cc2)s1	2	0.911	–
O=S(=O)(Nc1ccc(C(O)(C(F)(F)F)C(F)(F)F)cc1)c1ccccc1	> 10	–	–
O=S(=O)(c1ccccc1)N(CC(F)(F)F)c1ccc(CO)cc1	> 10	> 10	–
O=S(=O)(c1ccccc1)N(CC(F)(F)F)c1ccc(C(O)(C(F)(F)F)C(F)(F)F)cc1 [T091317]	–	–	EC50 (PBMC [3]): 3 µM; Imax (PBMC [4]): 81%; EC50 (PBMC [5]): > 20 µM; EC50 (PBMC [6]): > 20 µM

The next lines start with results.

IC50 [1] [µM]	EC50 [2] [µM]	SMILES	also measured
0.883	5	O=S(=O)(c1ccccc1)N1CCc2cc(C(O)(C(F)(F)F)C(F)(F)F)ccc21	–
0.52	0.92	N#Cc1ccccc1S(=O)(=O)N(CC(F)(F)F)c1ccc(C(O)(C(F)(F)F)C(F)(F)F)cc1	–
0.19	0.1	N#Cc1cccc(S(=O)(=O)N(CC(F)(F)F)c2ccc(C(O)(C(F)(F)F)C(F)(F)F)cc2)c1	–
0.051	0.02	Cc1ccc(S(=O)(=O)N(CC(F)(F)F)c2ccc(C(O)(C(F)(F)F)C(F)(F)F)cc2)cc1	–
0.748	1	O=S(=O)(c1cccnc1)N(CC(F)(F)F)c1ccc(C(O)(C(F)(F)F)C(F)(F)F)cc1	–
5	–	O=S(=O)(C1CC1)N(CC(F)(F)F)c1ccc(C(O)(C(F)(F)F)C(F)(F)F)cc1	–
0.52	> 2	O=S(=O)(Cc1ccccc1)N(CC(F)(F)F)c1ccc(C(O)(C(F)(F)F)C(F)(F)F)cc1	–
4	1	O=S(=O)(c1ccccc1)N(CCO)c1ccc(C(O)(C(F)(F)F)C(F)(F)F)cc1	–
3	> 10	COCCN(c1ccc(C(O)(C(F)(F)F)C(F)(F)F)cc1)S(=O)(=O)c1ccccc1	–
0.519	4	O=S(=O)(c1ccccc1)N(CCC(F)(F)F)c1ccc(C(O)(C(F)(F)F)C(F)(F)F)cc1	–
0.467	8	O=S(=O)(c1ccccc1)N(Cc1ccccc1)c1ccc(C(O)(C(F)(F)F)C(F)(F)F)cc1	–
0.9	9	COC(c1ccc(N(CC(F)(F)F)S(=O)(=O)c2ccccc2)cc1)(C(F)(F)F)C(F)(F)F	–
0.329	0.9	CCN(c1cccc(C(O)(C(F)(F)F)C(F)(F)F)c1)S(=O)(=O)c1ccccc1	–
2	4	O=C(c1ccccc1)N(CC(F)(F)F)c1ccc(C(O)(C(F)(F)F)C(F)(F)F)cc1	–
